These results are taken from US7256178B2, “Physiologically active substances” (priority 2002, dated 2007).

One data set deals with VEGF promoter. The data set can be described thus: VEGF transcription inhibitory activity (VEGF-PLAP reporter, U251/1-8 cells under hypoxic conditions). The class given is cell-based. Conditions: Homo sapiens, U-251, hypoxic (2% O2) incubator 18 hours, n=2 to 3. The source says: In order to prepare a reporter system in which transcription from a VEGF promoter is reflected, a VEGF promoter sequence was cloned and inserted into a placental alkaline phosphatase (PLAP) vector to construct a reporter vector.
In order to obtain a promoter region of human VEGF, a VEGF genome was cloned from a phage library. Based on VEGF cDNA (GenBank accession number: X62568), a PCR primer in the sequence described as SEQ ID NO: 1 or SEQ ID NO: 2 was designed to conduct PCR, thereby obtaining about a fragment of 340 bp. A human genomic phage library (human genomic library, Clontech) was screened using this fragment as a probe to obtain pUC18-VEGFA containing a VEGF5′ franking region of about 5.4 kb. This pUC18-VEGFA was cut with Kpn I/Nhe I to obtain a VEGF promoter region of about 2.3 kb, and the region was inserted into the multicloning site Kpn I/Nhe I of the placental alkaline phosphatase (PLAP) reporter vector (Goto et al., Mol. Pharmacol., 49, 860-873, 1996) to construct a VEGF-PLAP vector.
The above-described VEGF-PLAP vector was introduced into U251 cells cultured in a Dulbecco's modified Eagle's medium containing 10% fetal bovine serum (DMEM, manufactured by Sigma Co.), and cultured in the presence of 1 mg/mL G418 (Merck & Co., Inc.) to establish a G418-resistant stable clone (U251/1-8 cells).
As in a report by Minchenko et al. (Cell. Mol. Biol. Res., 40, 35-39, 1994), U251/1-8 cells were confirmed to be a reporter system which secretes PLAP into a culture medium under hypoxic conditions (2% O2 incubator), and in which transcription from a VEGF promoter is reflected. A compound inhibiting VEGF production induced by hypoxic stimulation was screened using this clone.
In order to eliminate influence of the alkali phosphatase in the serum, the U251/1-8 cells were washed with a sufficient amount of PBS (Phosphate buffered saline) twice, and treated at 65° C. for 20 minutes to inactivate the alkaline phosphatase in the serum. 4×10^4 cells/180 μL per well of the cells diluted in the DMEM culture medium containing 10% of this serum were plated in a 96-well plate.
The cells were cultured in a CO2 incubator (5% CO2) at 37° C. overnight, and 20 μL of the above-described culture solution containing the test compound at threefold serial dilutions was added. Subsequently, the cells were cultured in hypoxic (2% O2) incubator for 18 hours. To measure the PLAP activity in the culture supernatant liquid, 10 μL of the culture supernatant liquid was added to 50 μL of a 0.28 M Na2CO3—NaHCO3 buffer solution (pH 10.0, 8.0 mM MgSO4), and finally 50 μL of an alkaline phosphatase substrate (Lumistain, Genome Science Laboratories Co., Ltd.) was added thereto. After the reaction for one hour, chemiluminescence was detected using a microplate reader (PerkinElmer) to measure the PLAP activity as the alkaline phosphatase activity. The PLAP activity under normoxic conditions was defined as 0%, the PLAP activity of the cells when treated under hypoxic conditions was defined as 100%, and the concentration for inhibiting 50% of the PLAP activity was defined as the IC50 value of PLAP. The IC50 values of the 6-deoxy 11107D derivatives shown in examples were determined (n=2 to 3).

The subject of data set [1] is WiDr human colon cancer cells. The data set can be described thus: Action of inhibiting proliferation of WiDr human colon cancer cells (MTT). It is filed as cell-based. Conditions: 72 h, three days, n=2 to 3, read-out: WiDr human colon cancer cell proliferation inhibitory activity (IC50: nM). The method, then:
2×10^3 cells/well of WiDr human colon cancer cells cultured in a Dulbecco's modified Eagle's medium containing 10% fetal bovine serum, penicillin (100 units/mL) and streptomycin (100 μg/mL) (DMEM, manufactured by Sigma Co.) were plated in a 96-well plate. The cells were cultured in a CO2 incubator overnight, and 20 μL of the above-described culture solution containing the test compound at threefold serial dilutions was added for culturing the cells. After three days, 50 μL of a 3.3 mg/mL MTT solution was added, and the cells were further cultured for one hour. Then, formazan generated by reduction using living cells was extracted with 100 μL of DMSO to measure the absorbance (A540/A660), which was used as an index of the number of living cells.
The concentration for inhibiting 50% of proliferation of WiDr human colon cancer cells (IC50 value) of the compound of the formula (I) was determined (n=2 to 3).

Another data set concerns WiDr human colon tumors. Kind of data set: Solid cancer growth inhibitory action, WiDr cells subcutaneously implanted in nude mice. The class given is in vivo, nude mouse. To be noted: 0.625 mg/kg/day intravenously, 15th day, control group as 100%. The method, then:
(§1) In order to examine the solid cancer growth inhibitory activity of the compound of the formula (I) in vivo, WiDr human colon cancer cells were subcutaneously implanted into the body of each nude mouse. […] The control group consisted of ten mice, and the 6-deoxy 11107D derivative-administration group consisted of five mice. The derivative was intravenously injected at 0.625 mg/kg/day, 1.25 mg/kg/day, 2.5 mg/kg/day, 5 mg/kg/day, or 10 mg/kg/day to each mouse of the administration group, and a vehicle was administered to each mouse of the control group.
(§2) The tumor volumes on the 15th day were measured to determine the relative tumor weight ratio (T/C %), based on the tumor weight of each mouse of the control group as 100%. The body weights on the day of the start of administration, 5th day, 8th day, 12th day and 15th (or 16th) day were measured to examine the relative body weight variations in the case of administering the representative compounds, based on the body weights on the day of the start of administration as 100%. The minimum relative body weight ratios, which are the relative body weight ratios on the day when the body weights were lightest, are shown in Table 3.

Data set [2] is described as follows: Body weight reduction (acute toxicity) in the WiDr nude mouse test. The class given is in vivo. To be noted: 0.625 mg/kg/day intravenously, nude mice, day when body weights were lightest, relative to day of start of administration. The method, then:
as §1, §2

Data set [3] is described as follows: Stability in an aqueous solution (HPLC). It is filed as physicochemical. To be noted: for Remaining percentage (%): pH 7 Britton-Robinson buffer solution, 25° C., 24 hours. The method, then:
The compound of the formula (I) was dissolved in DMSO at a concentration of 10 to 20 mM, and the solution was diluted with a pH 7 Britton-Robinson buffer solution to about 500-fold. This solution was used as a sample solution, and was incubated at 25° C. for 24 hours.
The sample solution before and after the incubation was analyzed using high-performance liquid chromatography to obtain a chromatogram. The percentage of the compound remaining in the sample solution after the incubation was determined from the peak area of the chromatogram.

Data set [4] deals with P388 mouse leukemia cells. Conditions: cited from earlier work.
In data set [5] the test system is P388 mouse leukemia cells. To be noted: RPM-1640 culture medium; cited from earlier work.
The subject of data set [6] is L-1210 mouse leukemia cells. Conditions: RPM-1640 culture medium; cited from earlier work.
The subject of data set [7] is HL-60 human leukemia cells. To be noted: RPM-1640 culture medium; cited from earlier work.

`CCC(O)C(C)C1OC1CC(C)(O)/C=C/C=C(\C)C1OC(=O)CC(O)CCC(C)C(OC(=O)N2C[C@@H]3C[C@H]2CN3C)/C=C/C1C` (stereo partly drawn) [Compound 55, (8E,12E,14E)-3,16,21-trihydroxy-6,10,12,16,20-pentamethyl-7-(((1S,4S)-5-methyl-2,5-diazabicyclo[2.2.1]heptan-2-yl)carbonyl)oxy-18,19-epoxytricosa-8,12,14-trien-11-olide]: the values for the IC50 (with VEGF promoter; in data set [1]) were 1.1 nM and 0.6 nM, respectively. Also, the “WiDr human colon tumor growth inhibitory activity T/C(%)” value in the data set with WiDr human colon tumors is 11%. Moreover, the “Minimum relative body weight ratio” value in [2] amounted to 0.80. Also, the “Remaining percentage (%)” value in [3] was determined as 95.7%.
In the case of `CCC(OC)C(C)C1OC1C(O)C(C)/C=C/C=C(\C)C1OC(=O)CC(O)CCC(C)(O)C(OC(C)=O)/C=C/C1C` (stereo not drawn) [FD-895], in data set [3], the “Stability in an aqueous solution (in words)” value was “instable in an aqueous solution”. Moreover, the “Remaining percentage (%)” value was found to be 83.0% in [3] and 83% in data set [3] (listed as FD895). In [4], the “Antitumor activity in vivo” value is “did not show antitumor activity”. Besides, the “Cytotoxic activity in vitro” value in data set [5], in [6] and in data set [7] was “has cytotoxic activity” in each case.
